These results are taken from patent US10016358B2 (ROLF KULLGREN AB, priority 2008, dated 2018).

Counter-ions that a name gives are not always drawn.

What all share (type): cell-based
One data set concerns C. albicans. Description: Fungicidal effect of lactate compared with HCl at identical pH (FIG. 1). The conditions noted are these: 5% solution at pH 3.8; incubation at 37 C for two hours; control 1,000,000CFU.
Another data set relates to E.coli O6K5. Kind of data set: Minimum microbicidal concentration of lactate (microbicidal assay). As to conditions: for Remaining viability: 2.5 h at 37° C. Here is the method:
(§1) E.coli O6K5 (a urinary tract infection pathogen), a group B Streptococcus strain (GBS) CCUG 49086, and C.albicans ATCC 64549, The microorganisms were incubated over night in BHI medium. Thereafter the suspensions were transferred to new tubes and incubated for 2.5 h at 37° C. The cells were washed and suspended in diluted BHI ( 1/100, BHIdll). The suspensions were measured spectrophotometrically at 590 nm and the concentrations of the microrganisms adjusted according to standard curves. The bacterial suspensions were adjusted to 2×10^8CFU per ml and C.albicans
(§2) One lactate suppository was dissolved in 0.5 ml of distilled water. A lactate solution of 11.5% was obtained. This solution was used in the microbicidal assay.
(§3) The lactate solution was serially diluted in BHIdll by twofold steps in tubes (100 μl piper tube). The bacterial and yeast cell solutions were added in 10 μl volumes to give a final concentration of approximately 2×10^7 and 1×10^5 cells per ml respectively. The tubes were incubated at 37° C. on a shaker for 2.5 h. Five ul were taken from each tube and added as a drop (in triplicate) onto a blood agar plate and incubated over night at 37° C. The killing was expressed as remaining colony forming units (CFU) in relation to the inoculum. The lower limit for detection of microorganisms was 200 CFU/ml. The viability of any remaining microorganism in the tubes was checked by diluting the remaining solutions to 1/5 with growth medium, resulting in a 2.3% lactate solution or less, and incubation of the tubes over night at 37 C. The next day, once again 5 μl of the solutions were applied as drops onto blood agar plates and incubated at 37° C. over night.

Data set [1] concerns group B Streptococcus strain (GBS) CCUG 49086. Described as above. The conditions noted are these: for Remaining viability: 2.5 h at 37° C.; for killed: after 2.5 h of incubation. Here is the method: as §1, §2, §3
Another data set has as its system C.albicans ATCC 64549. The description is as above. The conditions noted are these: for killed: after 2.5 h of incubation; for Remaining viability: 2.5 h at 37° C. The method, then: as §1, §2, §3

As for `Cl` [HCl, reference compound], the “viable colony forming units of C. albicans” value in the data set with C. albicans is 100,000 CFU.

`CC(O)C(=O)O` (stereo not shown) [lactate]: the “viable colony forming units of C. albicans” value in the data set with C. albicans is recorded as below 100 CFU. For the same compound, the “lactate concentration that effectively killed the pathogen” value (in the data set on E.coli O6K5 (2.5 h incubation); in data set [1] (2.5 h incubation); in the data set on C.albicans ATCC 64549 (2.5 h incubation)) was at least 5.8% in each case. For the same compound, the Remaining viability in the data set on E.coli O6K5 (lactate concentration 0.35%), in the data set with E.coli O6K5 (lactate concentration 0.7%), in the data set on E.coli O6K5 (lactate concentration 1.4%), in the data set with E.coli O6K5 (lactate concentration 2.9%), in the data set with E.coli O6K5 (lactate concentration 5.8%) and in the data set with E.coli O6K5 (lactate concentration 11.5%) was 0 throughout. The Remaining viability entry was “+ (no distinguishable colonies (>50 CFU per area = >10^4 CFU per ml))” in data set [1] (lactate concentration 0.35%); “+ (no distinguishable colonies (>50 CFU per area = >10^4 CFU per ml))” in data set [1] (lactate concentration 0.7%); “+ (no distinguishable colonies (>50 CFU per area = >10^4 CFU per ml))” in data set [1] (lactate concentration 1.4%); “+ (no distinguishable colonies (>50 CFU per area = >10^4 CFU per ml))” in data set [1] (lactate concentration 2.9%); 0 in data set [1] (lactate concentration 5.8%); 0 in data set [1] (lactate concentration 11.5%). Moreover, the Remaining viability result in the data set with C.albicans ATCC 64549 (lactate concentration 0.35%) is “+ (no distinguishable colonies (>50 CFU per area = >10^4 CFU per ml))”; in the data set with C.albicans ATCC 64549 (lactate concentration 0.7%), “+ (no distinguishable colonies (>50 CFU per area = >10^4 CFU per ml))”; with C.albicans ATCC 64549 (lactate concentration 1.4%), “+ (no distinguishable colonies (>50 CFU per area = >10^4 CFU per ml))”; in the data set with C.albicans ATCC 64549 (lactate concentration 2.9%), “+ (no distinguishable colonies (>50 CFU per area = >10^4 CFU per ml))”; in the data set on C.albicans ATCC 64549 (lactate concentration 5.8%), 0.6 ± 0.4^¤ percentage of the inoculum; in the data set with C.albicans ATCC 64549 (lactate concentration 11.5%) it was 0. Further, the killed was found to be 100% with E.coli O6K5 (lowest concentration of lactate tested (0.35%), after 2.5 h of incubation); 100% in data set [1] (lactate concentration 5.8%); 100% in data set [1] (lactate concentration 11.5%); 99.4% in the data set with C.albicans ATCC 64549 (5.8% of lactate); 100% in the data set with C.albicans ATCC 64549 (11.5% of lactate).
